Earlier results on one molecule are cited in US20090297596A1, “Nanoparticulate and Controlled Release Compositions Comprising a Platelet Aggregation Inhibitor” (ELAN PHARMA INTERNATIONAL LIMITED, priority 2005, published 2009).

Where two headings read alike, the source gives them in different places.

Series [1] relates to phosphodiesterase III.

Regarding `O=C1CCc2cc(OCCCCc3nnnn3C3CCCCC3)ccc2N1` [Cilostazol, 6-[4-(1-cyclohexyl-1H-tetrazol-5-yl)butoxy]-3,4-dihydro-2(1H)-quinolinone], the Solubility result by setting is: (absolute ether) “practically insoluble”; (benzyl alcohol) “soluble”; (chloroform) “freely soluble”; (dimethylformamide) “soluble”; (ethanol) “slightly soluble”; (methanol) “slightly soluble”. Besides, the Solubility entry was “soluble” (mixture of chloroform and methanol (1:1)); “practically insoluble” (water). Moreover, the “Inhibition of phosphodiesterase III” value in series [1] is reported as “inhibits”.
